# According to PMC12066977, “Alkyl Tail Variation on Chalcone‐Based Quaternary Pyridinium Salts as Rule‐of‐Thumb for Antimicrobial Activity” (Archiv Der Pharmazie, 2025):
# Where two headings read alike, the source gives them in different places.
# Legend:
# C. albicans ATCC 10231 [1] = test: Broth microdilution antimicrobial assay (MIC, IC50); assay type: cell-based; conditions: Candida albicans, 24 h; for MIC: ATCC10231, broth microdilution, 37°C
# Procedure: (§1) Reference strains of Staphylococcus aureus (ATCC 25923), Escherichia coli (ATCC 25922), and Candida albicans (ATCC 10231) were used in this study as microbial models. These strains were purchased from the American Type Culture Collection (ATCC); bacterial cultures were routinely grown on 5% blood agar plate, while fungal cultures on Sabouraud Dextrose Agar (Biolife […]., Milan, Italy). […] In short, microbial inocula were prepared at 0.5 McFarland in PBS and, subsequently, bacterial suspensions were diluted 1:200 in Mueller-Hinton broth (Sigma-Aldrich, St. Louis, MO, USA), while fungal inoculum was diluted 1:20 in RPMI-1640 medium (Gibco®, ThermoFisher Scientific Inc., Waltham, MA, USA), containing glucose 2%, 0.3% levo-glutamine buffered to pH 7.0 with 0.165 M 3-(N-morpholino) propanesulfonic acid (MOPS). A total of 100 μL of these microbial suspensions was introduced into a 96-well microplate and incubated with 100 μL of the compounds, two-fold serially diluted in the range of 100-0.19 μM. Positive controls (microbial suspensions in regular media), negative controls (only compounds), and solvent controls (microbial suspensions incubated with DMSO dilutions) were included in the tests. The plate was incubated at 37°C for 24 h, and subsequently the optical density at 630 nm (OD630nm) was spectrophotometrically measured. Experiments were carried out in triplicate in three biological replicates. […] Statistical analysis was carried out by using GraphPad Prism version 9.4.1 for Windows (GraphPad Software, San Diego, California USA, www.graphpad.com). ^a MIC (Minimum Inhibitory Concentration) were determined in vitro by means of a standardized microdilution assay, in compliance with the Clinical and laboratory Standard Institute (CLSI) guidelines (30). Microbial suspensions were prepared at 0.5 McFarland in PBS, then diluted in the media and transferred in a 96 micro-well plate together with the serially 2-fold dilutions of the compounds. After 24h of incubation at 37°C, microbial growths were evaluated by measuring the Optical Density at 600 nm, then percentage values were obtained as relative to the positive controls (microbial suspensions in regular media).
# E. coli ATCC 25922 = test: as above; assay type: cell-based; conditions: Escherichia coli, 24 h; for MIC: ATCC25922, broth microdilution, 37°C
# Procedure: as §1
# S. aureus ATCC 25923 = test: as above; assay type: cell-based; conditions: Staphylococcus aureus; for IC50: ATCC25923, 50% growth inhibition, 24 h, read-out: IC50 [95% confidence interval] Staphylococcus aureus; for MIC: ATCC25923, 24 h, broth microdilution, 37°C
# Procedure: as §1
# [2] = Cell viability and proliferation assay (WST8/CCK-8); assay type: cell-based; conditions: African green monkey, Vero cells (ATCC CCL-81), 48 h treatment, CCK-8; read-out: CC50 [95% CI] Vero cells
# Procedure: (§2) Vero cell line (ATCC CCL‐81) was selected as a model system to investigate the overall effect of chalcones on non‐malignant mammalian cells. […] For experiments, cells were seeded into 96‐well plates at 10^4 cells/well and incubated at 37°C for 24 h. Following washes with PBS, the cell monolayer was incubated with 100 µL of medium containing the twofold serial dilutions of the compounds. Both untreated cells and cells incubated with medium containing solvent dilutions were included in each experiment as controls. The cell viability was assessed by a WST8‐based assay according to the manufacturer's instructions (CCK‐8, Cell Counting Kit‐8, Dojindo Molecular Technologies, Rockville, MD, USA). After 48 h of incubation, culture medium was removed from each well, the monolayer was washed with PBS, and 100 µL of fresh medium containing 10 µL of CCK‐8 solution was added. Following a 2 h incubation at 37°C, the OD450nm was read, and data were expressed as the percentage of cell viability relative to the untreated controls. The CC50 was obtained on the corresponding dose–response curves generated as previously reported for IC50 values. Experiments were carried out in triplicate in three biological replicates.
# [3] = tested on: human red blood cells (hRBCs); test: Hemolytic activity assay; assay type: cell-based; conditions: 25 µM, 90 min, 37°C
# Procedure: The hemolytic activity of some selected compounds was evaluated as the amount of hemoglobin released by the disruption of human red blood cells (hRBCs). For the experiments, fresh hRBCs were collected by centrifugation at 1500g for 10 min, washed three times with PBS, and resuspended to a final concentration of 4% w/v hRBCs in PBS. Then, 100 µL of hRBCs suspension and an equal volume of the twofold dilutions of the antimicrobial peptides were mixed in a 96‐well plate and incubated for 90 min at 37°C. After centrifugation at 1000g for 5 min, the supernatants were transferred into a clear 96‐well plate, and OD405nm was read. Untreated hRBCs (incubated with PBS) and hRBCs incubated with 1% Triton X‐100 were employed as negative and positive controls, respectively. The hemolysis percentage was calculated as [OD405nm (sample) − OD4_05nm (negative control)]/[OD405nm (positive control) − OD405nm (negative control)] × 100. Minimal hemolytic concentrations (MHCs) were defined as the compound concentration causing 10% hemolysis. Three independent experiments were performed in triplicate.
# E. coli biofilm = test: Inhibition of biofilm formation (crystal violet staining); assay type: cell-based; conditions: Escherichia coli, 24 h, CV staining, read-out: inhibition of E. coli biofilm production
# Procedure: (§3) The ability of some selected compounds to inhibit biofilm formation was assessed by established protocols with minor modifications. In short, exponential cultures of S. aureus, E. coli, and C. albicans grown in Tryptic Soy broth (TSB, Sigma‐Aldrich, St. Louis, MO, USA) were adjusted to a final density of 10^5 CFU/mL. Aliquots of 100 µL of the microbial cultures were transferred to a 96‐well flat‐bottom polystyrene microplate, and then incubated at 37°C for 90 min to promote bacterial adhesion. Thereafter, wells were slowly rinsed with PBS to remove nonattached cells, and 100 µL of TSB supplemented with 1% glucose containing the twofold serial dilutions of the compounds was added. After incubation at 37°C for 24 h, the free‐floating cells were removed, and the biofilms were carefully washed with PBS. The biomass was quantified by a standardized crystal violet (CV) staining. Briefly, 100 µL of CV solution (0.1% in water) was added to each well containing a completely air‐dried biofilm, and incubated for 30 min at 37°C. […] Finally, the colored supernatants were transferred to a new microplate, and the OD550nm was measured. The percentage inhibition of biofilm formation in the different experimental conditions was calculated relative to the biofilm mass formed in the absence of compounds (positive control).
# S. aureus biofilm = test: as above; assay type: cell-based; conditions: Staphylococcus aureus, 24 h, CV staining, read-out: inhibition of S. aureus biofilm production
# Procedure: as §3
# C. albicans ATCC 10231 [4] = conditions: lead compound 1, previously reported; read-out: IC50 [95% confidence interval] Candida albicans; cited from earlier work
# Leishmania donovani = tested on: Leishmania donovani; set-up: method as in PMID 30669643, PMID 29758517; conditions: lead compound 1, previously reported; read-out: IC50 against Leishmania donovani; cited from earlier work
# Vero cells (ATCC CCL-81) = test: Cell viability and proliferation assay (WST8/CCK-8); assay type: cell-based; conditions: 48 h treatment, CCK-8; read-out: CC50 [95% CI] Vero cells
# Procedure: as §2
# [5] = tested on: S. aureus ATCC 25923, E. coli ATCC 25922, C. albicans ATCC 10231; test: Broth microdilution antimicrobial assay, statements pooled over the three strains; assay type: cell-based; conditions: stated for S. aureus, E. coli and C. albicans together; read-out: MIC toward the three selected strains
# Procedure: The antimicrobial activity of the compounds was assessed by determining the Minimum Inhibitory Concentration (MIC) by a well‐established broth microdilution procedure in microtiter plates and in compliance with the Clinical and Laboratory Standards Institute (CLSI) guidelines.
# In short, microbial inocula were prepared at 0.5 McFarland in PBS and, subsequently, bacterial suspensions were diluted 1:200 in Mueller–Hinton broth (Sigma‐Aldrich, St. Louis, MO, USA), while fungal inoculum was diluted 1:20 in RPMI‐1640 medium (Gibco®, ThermoFisher Scientific Inc., Waltham, MA, USA), containing glucose 2%, 0.3% levo‐glutamine buffered to pH 7.0 with 0.165 M 3‐(N‐morpholino) propanesulfonic acid (MOPS). A total of 100 µL of these microbial suspensions was introduced into a 96‐well microplate and incubated with 100 µL of the compounds, two‐fold serially diluted in the range of 100–0.19 µM. Positive controls (microbial suspensions in regular media), negative controls (only compounds), and solvent controls (microbial suspensions incubated with DMSO dilutions) were included in the tests. The plate was incubated at 37°C for 24 h, and subsequently the optical density at 630 nm (OD630nm) was spectrophotometrically measured. Experiments were carried out in triplicate in three biological replicates. […]
"IC50 (C. albicans ATCC 10231 [1]; ATCC10231, 50% growth inhibition, read-out: IC50 [95% confidence interval] Candida albicans)",MIC (C. albicans ATCC 10231 [1]),"IC50 (E. coli ATCC 25922; ATCC25922, 50% growth inhibition, read-out: IC50 [95% confidence interval] Escherichia coli)",MIC (E. coli ATCC 25922),IC50 (S. aureus ATCC 25923),MIC (S. aureus ATCC 25923),MIC [5],SMILES,CC50 at 48 h [2],hemolytic activity [3],inhibition at 25 µM (E. coli biofilm),inhibition at 25 µM (S. aureus biofilm),IC50 (C. albicans ATCC 10231 [4]),IC50 (Leishmania donovani),CC50 (Vero cells (ATCC CCL-81))
4.28 µM,6.25 µM,4.48 µM,6.25 µM,0.84 µM,1.56 µM,,"C#CCOc1ccc(C(=O)/C=C/c2ccc[n+](CCCCCCCCCC)c2)c(OCC#C)c1.[Br-] [Compound 4, (E)‐3‐{3‐[2,4‐Bis(prop‐2‐yn‐1‐yloxy)phenyl]‐3‐oxoprop‐1‐en‐1‐yl}‐1‐decylpyridin‐1‐ium bromide]",12.8 µM,30.0%,> 90%,> 90%,,,
,,,> 100 µM,47.6 µM,,,C#CCOc1ccc(C(=O)/C=C/c2cccnc2)c(OCC#C)c1 [Compound 1],,,,,43.8 µM,4 µM,
,> 100 µM,,,,> 100 µM,≥ 50 µM,"C#CCOc1ccc(C(=O)/C=C/c2cccnc2)c(OCC#C)c1 [Compound 9, (E)‐3‐{3‐[2,4‐Bis(prop‐2‐yn‐1‐yloxy)phenyl]‐3‐oxoprop‐1‐en‐1‐yl}pyridin‐1‐ium bromide]",,,,,,,6.2 µM
